Data: PMC10167348, “Structural mechanisms of TRPM7 activation and inhibition” (Nature Communications, 2023)
Like-named read-outs stand apart in the source and are kept apart here.

Tests used:
Assay type in all cases: cell-based
[1] = target: T1, wild-type TRPM7 (Mus musculus, UniProt Q923J1); assay: Whole-cell patch-clamp recordings in HEK 293T cells; details: amplitude at +80 mV
T1 construct: expressed in transfected cells; host or cells: HEK 293T
Procedure: Patch-clamp experiments were performed as reported previously, with a few modifications[69],[70]. HEK 293T cells grown in 35-mm dishes to ~60% confluence were transiently transfected with Trpm7 cDNAs in the pIRES2-EGFP vector (2 µg/dish). Patch-clamp experiments were conducted 18–22 h after transfection with cells displaying EGFP fluorescence. Whole-cell currents were recorded using an EPC10 patch-clamp amplifier and PatchMaster software (Version V2x69, Harvard Bioscience). Voltages were corrected for a liquid junction potential of 10 mV. Currents were elicited by voltage ramps from –100 mV to +100 mV over 50 ms acquired at 0.5 Hz. The inward and outward current amplitudes were measured at –80 mV and +80 mV and were normalized to the cell size as pA/pF. The capacitance was measured using the automated capacitance cancellation function of EPC10. The standard extracellular solution contained 140 mM NaCl, 2.8 mM KCl, 1 mM CaCl2, 2 mM MgCl2, 10 mM HEPES-NaOH, and 11 mM glucose (all from Sigma-Aldrich). Solutions were adjusted to pH 7.2 using an FE20 pH meter (Mettler Toledo) and to 290 mOsm using a Vapro 5520 osmometer (Wescor Inc). […] For the experiment with naltriben, the intracellular solution contained 120 mM Cs-glutamate, 8 mM NaCl, 10 mM Cs-EGTA, 1.5 mM MgCl2, and 10 mM HEPES-CsOH. The intracellular solution was also adjusted to pH 7.2 and 290 mOsm. Data are presented as the mean ± SEM Unless indicated otherwise, data were compared by unpaired t-test (GraphPad Prism 8.4.0). For multiple comparisons, ordinary one-way ANOVA (GraphPad Prism 8.4.0) was used. Significance was accepted at P ≤ 0.05.

[2] = target: T2, TRPM7-N1098Q (Mus musculus, UniProt Q923J1, N1098Q); assay: Aequorin-based Ca2+ influx assay, inhibition of TRPM7-mediated Ca2+ influx
T2 construct: expressed in transfected cells; host or cells: HEK 293T
T2 sequence (Q923J1 whole entry N1098Q): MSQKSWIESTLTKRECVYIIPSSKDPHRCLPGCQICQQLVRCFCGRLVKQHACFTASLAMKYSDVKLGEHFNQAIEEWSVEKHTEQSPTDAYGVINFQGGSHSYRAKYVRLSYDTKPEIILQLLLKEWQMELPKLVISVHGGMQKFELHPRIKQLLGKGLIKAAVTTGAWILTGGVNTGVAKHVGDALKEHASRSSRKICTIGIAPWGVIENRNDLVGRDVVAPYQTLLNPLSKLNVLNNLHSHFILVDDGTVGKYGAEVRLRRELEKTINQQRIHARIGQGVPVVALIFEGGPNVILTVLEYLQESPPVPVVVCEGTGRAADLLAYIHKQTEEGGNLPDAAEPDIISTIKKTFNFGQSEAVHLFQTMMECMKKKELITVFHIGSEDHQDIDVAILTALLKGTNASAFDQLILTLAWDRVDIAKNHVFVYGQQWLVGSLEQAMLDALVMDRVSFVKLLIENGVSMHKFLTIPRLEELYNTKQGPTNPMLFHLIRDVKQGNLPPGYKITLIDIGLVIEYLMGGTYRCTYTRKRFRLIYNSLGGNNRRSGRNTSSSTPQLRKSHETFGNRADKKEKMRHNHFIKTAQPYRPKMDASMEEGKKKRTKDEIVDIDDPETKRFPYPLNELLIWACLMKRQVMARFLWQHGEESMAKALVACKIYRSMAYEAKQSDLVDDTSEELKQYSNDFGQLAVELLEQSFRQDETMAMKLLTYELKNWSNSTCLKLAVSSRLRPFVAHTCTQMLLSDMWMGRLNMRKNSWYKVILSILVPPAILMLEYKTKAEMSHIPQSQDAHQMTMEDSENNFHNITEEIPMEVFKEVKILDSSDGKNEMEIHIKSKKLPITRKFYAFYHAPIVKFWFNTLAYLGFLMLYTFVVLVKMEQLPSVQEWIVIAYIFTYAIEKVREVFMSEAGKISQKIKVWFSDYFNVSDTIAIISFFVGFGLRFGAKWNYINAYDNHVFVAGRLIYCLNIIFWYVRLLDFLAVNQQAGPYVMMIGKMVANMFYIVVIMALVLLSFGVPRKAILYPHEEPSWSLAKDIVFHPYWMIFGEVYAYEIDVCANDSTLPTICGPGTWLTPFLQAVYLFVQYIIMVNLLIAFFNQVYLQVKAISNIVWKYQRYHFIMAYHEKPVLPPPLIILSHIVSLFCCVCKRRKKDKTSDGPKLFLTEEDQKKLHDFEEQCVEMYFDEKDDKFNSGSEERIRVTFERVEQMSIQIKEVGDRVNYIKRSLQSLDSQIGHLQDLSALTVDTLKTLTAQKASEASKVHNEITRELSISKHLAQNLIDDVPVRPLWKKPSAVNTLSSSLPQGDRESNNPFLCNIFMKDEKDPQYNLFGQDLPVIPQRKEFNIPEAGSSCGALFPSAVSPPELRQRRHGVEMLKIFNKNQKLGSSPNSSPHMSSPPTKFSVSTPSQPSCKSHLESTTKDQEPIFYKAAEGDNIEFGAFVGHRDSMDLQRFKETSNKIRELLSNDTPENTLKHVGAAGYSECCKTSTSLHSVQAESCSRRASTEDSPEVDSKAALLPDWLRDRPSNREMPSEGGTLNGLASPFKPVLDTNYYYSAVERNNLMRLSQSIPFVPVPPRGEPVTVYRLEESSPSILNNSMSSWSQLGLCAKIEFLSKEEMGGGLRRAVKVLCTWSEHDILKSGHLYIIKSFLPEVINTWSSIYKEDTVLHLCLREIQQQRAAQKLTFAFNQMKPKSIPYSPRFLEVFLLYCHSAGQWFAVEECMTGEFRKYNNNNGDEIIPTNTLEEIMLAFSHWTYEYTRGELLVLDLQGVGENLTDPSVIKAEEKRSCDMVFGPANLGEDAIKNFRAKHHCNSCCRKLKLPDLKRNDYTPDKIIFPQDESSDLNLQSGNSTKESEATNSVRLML
Procedure: (§1) Measurements of [Ca^2+]i were performed as reported previously with several modifications[2],[52],[54]. HEK 293T cells (mycoplasma test negative, ATCC #CRL3216) were maintained at 37 °C and 5% CO2 in DMEM supplemented with 10% fetal calf serum, 100 µg/ml streptomycin and 100 U/ml penicillin (all from Thermo Fisher Scientific). Cells cultured in six-well plates (~60% confluence) were transfected with 2 µg/dish Trpm7 plasmid DNA and 0.1 µg/dish pG5A plasmid DNA encoding eGFP fused to Aequorea victoria aequorin, using Lipofectamine 2000 (Thermo Fisher Scientific). Twenty-four hours after transfection, the cells were washed with Mg^2+-free HEPES-buffered saline (Mg^2+-free HBS) containing 140 mM NaCl, 6 mM KCl, 0.5 mM CaCl2, 10 mM HEPES (pH 7.4) and 5 mM glucose, and mechanically resuspended in the Mg^2+-free HBS. For reconstitution of aequorin, cell suspensions were incubated with 5 µM coelenterazine (Biaffin GmbH) in the Mg^2+-free HBS for 30 min at room temperature. Cells were washed twice by centrifugation at 600 rpm for 5 min (Heraeus Pico 17 microcentrifuge, Thermo Fisher Scientific), resuspended in the Mg^2+-free HBS and aliquoted into 96-well plates (1 × 10^5 cells per well). Luminescence was detected at room temperature using a FLUOstar OPTIMA microplate reader (BMG LABTECH GmbH). To monitor the NS8593- and VER155008-induced inhibition of TRPM7-mediated Ca^2+ influx, the extracellular concentration of Ca^2+ was increased to 5 mM by injecting the CaCl2-containing Mg^2+-free HBS in the absence or presence of the inhibitors. […] To study activation by naltriben, TRPM7-transfected cells were exposed to Mg^2+-free HBS containing different concentrations of the agonist. The experiments were terminated by lysing cells with 0.1% (v/v) Triton X-100 in the Mg^2+-free HBS to record the total bioluminescence. The bioluminescence rates (counts/s) were analyzed at 1-s intervals and calibrated as [Ca^2+]i values using the following equation:1 p[Ca^2+]i=0.332588(−log(k))+5.5593 where k represents the rate of aequorin consumption, i.e., counts/s divided by the total number of counts.
(§2) To determine the IC50 values for NS8593 and VER155008 (EC50 for naltriben), the data were fitted with the following logistic equation:2 Ec=Emin+Emax+Emin/1+c^h/IC50^h where E(c) is the functional effect at the concentration c of the compound, Emin is the minimal effect, Emax is the maximal effect, IC50 (EC50) is the concentration of the compound that produces the half-maximal effect, and h is the Hill coefficient. Fitting of dose-response curves was performed using GraphPad Prism 8.4.0. Data are presented as the mean ± SEM.

[3] = target: T3, TRPM7-W1111A (Mus musculus, UniProt Q923J1, W1111A); assay: as above
T3 construct: expressed in transfected cells; host or cells: HEK 293T
T3 sequence (Q923J1 whole entry W1111A): as the sequence (Q923J1 whole entry N1098Q) above, with Q1098N, W1111A counted along it
Procedure: as §1, §2

[4] = target: T4, TRPM7-M991A (Mus musculus, UniProt Q923J1, M991A); assay: as above
T4 construct: expressed in transfected cells; host or cells: HEK 293T
T4 sequence (Q923J1 whole entry M991A): as the sequence (Q923J1 whole entry N1098Q) above, with M991A, Q1098N counted along it
Procedure: as §1, §2

[5] = target: T5, TRPM7-A981V (Mus musculus, UniProt Q923J1, A981V); assay: as above
T5 construct: expressed in transfected cells; host or cells: HEK 293T
T5 sequence (Q923J1 whole entry A981V): as the sequence (Q923J1 whole entry N1098Q) above, with A981V, Q1098N counted along it
Procedure: as §1, §2

[6] = [NS8593] 0.7 µM, replicate values, read-out: TRPM7 activity, 100%
[7] = [NS8593] 7.0 µM, replicate values, read-out: TRPM7 activity, 100%

T1 sequence (Q923J1 whole entry): as the sequence (Q923J1 whole entry N1098Q) above, with Q1098N counted along it

For `c1ccc2c(c1)CCC[C@H]2Nc1nc2ccccc2[nH]1` [NS8593], the “amplitude of TRPM7-mediated currents in the presence of inhibitor” value ([1]; 10 µM inhibitor, 450-s exposure) was “greatly reduced”, the remaining activity at 0.3 µM ([2]; N1097Q (so in the source), [NS8593] 0.3 µM, replicate values, read-out: TRPM7 activity, 100%) was 90.4% and the remaining activity at 0.5 µM ([2]; N1097Q (so in the source), [NS8593] 0.5 µM, replicate values, read-out: TRPM7 activity, 100%) was 95%. It also gave a remaining activity at 0.7 µM ([2]; N1097Q (so in the source), [NS8593] 0.7 µM, replicate values, read-out: TRPM7 activity, 100%) of 87.7%, a remaining activity at 1 µM ([2]; N1097Q (so in the source), [NS8593] 1.0 µM, replicate values, read-out: TRPM7 activity, 100%) of 82.4% and a remaining activity at 5 µM ([2]; N1097Q (so in the source), [NS8593] 5.0 µM, replicate values, read-out: TRPM7 activity, 100%) of 64.3%. The remaining activity at 7 µM ([2]; N1097Q (so in the source), [NS8593] 7.0 µM, replicate values, read-out: TRPM7 activity, 100%) was 59.4%, the remaining activity at 10 µM ([2]; N1097Q (so in the source), [NS8593] 10.0 µM, replicate values, read-out: TRPM7 activity, 100%) was 43.2% and the “TRPM7 activity, 100%” value ([2]; N1097Q (so in the source), [NS8593] 50.0 µM, replicate values) was 0.0%. For the same compound, the remaining activity at 50 µM ([2]; N1097Q (so in the source), [NS8593] 50.0 µM, replicate values, read-out: TRPM7 activity, 100%) was 0%, the Hill coefficient ([2]; N1098Q, antagonist, mean ± SEM) was “–0.93 ± 0.20” and the IC50 ([2]; N1098Q, antagonist, mean ± SEM) was 20.5 ± 10.7 µM. For the same compound, the remaining activity at 0.5 µM ([3]; [NS8593] 0.5 µM, replicate values, read-out: TRPM7 activity, 100%) was 103%, the remaining activity at 0.7 µM [3, 6] was 103% and the remaining activity at 1 µM ([3]; [NS8593] 1.0 µM, replicate values, read-out: TRPM7 activity, 100%) was 98.1%. The remaining activity at 3 µM ([3]; [NS8593] 3.0 µM, replicate values, read-out: TRPM7 activity, 100%) was 62.5%, the remaining activity at 7 µM [3, 7] was 50.3% and the Hill coefficient ([3]; antagonist, mean ± SEM) was “–1.54 ± 0.24”. It also gave an IC50 ([3]; antagonist, mean ± SEM) of 5.14 ± 0.45 µM, a remaining activity at 0.7 µM ([4]; M991A in the presence of 10 µM VER155008, [NS8593] 0.7 µM, replicate values, read-out: TRPM7 activity, 100%) of 77% and a remaining activity at 1 µM ([4]; M991A in the presence of 10 µM VER155008, [NS8593] 1.0 µM, replicate values, read-out: TRPM7 activity, 100%) of 61.9%. It also gave a remaining activity at 3 µM ([4]; M991A in the presence of 10 µM VER155008, [NS8593] 3.0 µM, replicate values, read-out: TRPM7 activity, 100%) of 17.1%, a remaining activity at 5 µM ([4]; M991A in the presence of 10 µM VER155008, [NS8593] 5.0 µM, replicate values, read-out: TRPM7 activity, 100%) of 11.9% and a remaining activity at 1 µM ([4]; M991A without VER155008, [NS8593] 1.0 µM, replicate values, read-out: TRPM7 activity, 100%) of 28.8%. The Hill coefficient ([4]; M991A, antagonist, no added second inhibitor, mean ± SEM) was “–1.24 ± 0.15”, the IC50 ([4]; M991A, antagonist, no added second inhibitor, mean ± SEM, read-out: IC50) was 0.59 ± 0.05 µM and the Hill coefficient ([4]; M991A, in the presence of 10 µM VER155008, mean ± SEM) was “–1.43 ± 0.11”. The remaining activity at 0.3 µM ([5]; [NS8593] 0.3 µM, replicate values, read-out: TRPM7 activity, 100%) was 98.9%, the remaining activity at 0.7 µM [5, 6] was 97.4% and the remaining activity at 7 µM [5, 7] was 81.9%. The Hill coefficient ([5]; antagonist, mean ± SEM) was “–1.45 ± 0.50” and the IC50 ([5]; antagonist, mean ± SEM, read-out: IC50) was 21.9 ± 12.3 µM.

In the case of `Oc1ccc2c3c1O[C@H]1c4oc5ccccc5c4C[C@@]4(O)[C@@H](C2)N(CC2CC2)CC[C@]314` [Naltriben, naltriben], the “whole-cell currents in the presence of agonist” value ([1]; 500 μM NTB, 170-s application) is reported as “dramatically increased”.
